# Source: US10251394B2, “Molecules having pesticidal utility, and intermediates, compositions, and processes, related thereto” (Dow AgroSciences LLC, priority 2016, dated 2019)
# What was measured:
# [1] = test system: Beet Armyworm (Spodoptera exigua); assay: Bioassay on Beet Armyworm (BAW), 128-well diet tray assay; format: in vivo; settings: for pest or weed control at 50 µg/cm2: Beet Armyworm, Table ABC, read-out: BAW rating
# Experimental: (§1) Example A: Bioassays on Beet Armyworm (Spodoptera Exigua, LAPHEG) (“BAW”), Corn Earworm (Helicoverpa Zea, HELIZE) (“CEW”), and Cabbage Looper (Trichoplusia Ni, TRIPNI) (“CL”)
# (§2) Certain molecules disclosed in this document were tested against BAW, CEW, and CL using procedures described in the following examples. In the reporting of the results, the “BAW, CEW, & CL Rating Table” was used (See Table Section).
# Bioassays on BAW were conducted using a 128-well diet tray assay. One to five second instar BAW larvae were placed in each well (3 mL) of the diet tray that had been previously filled with 1 mL of artificial diet to which 50 μg/cm^2 of the test molecule (dissolved in 50 μL of 90:10 acetone-water mixture) had been applied (to each of eight wells) and then allowed to dry. Trays were covered with a clear self-adhesive cover and held at 25° C., 14:10 light-dark for five to seven days. Percent mortality was recorded for the larvae in each well; activity in the eight wells was then averaged. The results are indicated in the table entitled “Table ABC: Biological Results” (See Table Section).
# (§3) Bioassays on BAW and CL were conducted according to the procedures outlined in Example A: Bioassays on Beet Armyworm (“BAW”) and Cabbage Looper (“CL”) using the indicated concentrations.
# [2] = test system: Cabbage Looper (Trichoplusia ni); assay: Bioassay on Cabbage Looper (CL), 128-well diet tray assay; format: in vivo; settings: for pest or weed control at 50 µg/cm2: Cabbage Looper, Table ABC, read-out: CL rating
# Experimental: as §1, §2
# Bioassays on CL were conducted using a 128-well diet tray assay. One to five second instar CL larvae were placed in each well (3 mL) of the diet tray that had been previously filled with 1 mL of artificial diet to which 50 μg/cm^2 of the test molecule (dissolved in 50 μL of 90:10 acetone-water mixture) had been applied (to each of eight wells) and then allowed to dry. Trays were covered with a clear self-adhesive cover and held at 25° C., 14:10 light-dark for five to seven days. Percent mortality was recorded for the larvae in each well; activity in the eight wells was then averaged. The results are indicated in the table entitled “Table ABC: Biological Results” (See Table Section).
# as §3
SMILES,pest or weed control at 50 µg/cm2 [1] [%],pest or weed control at 50 µg/cm2 [2] [%],other results
"C[C@@H](NC(=O)c1ccc(/C(F)=C/C(c2cc(Cl)c(Cl)c(Cl)c2)C(F)(F)F)cc1Cl)C(=O)N(C)CC(F)(F)F (stereo partly drawn) [F49, 2-Chloro-N—((R)-1-(methyl(2,2,2-trifluoroethyl)amino)-1-oxopropan-2-yl)-4-((Z)-1,4,4,4-tetrafluoro-3-(3,4,5-trichlorophenyl)but-1-en-1-yl)benzamide]",50 to 100,50 to 100,–
"C[C@@H](NC(=O)c1ccc(/C(F)=C/C(c2cc(Cl)c(Cl)c(Cl)c2)C(F)(F)F)cc1Br)C(=O)N(C)CC(F)(F)F (stereo partly drawn) [F50, 2-Bromo-N—((R)-1-(methyl(2,2,2-trifluoroethyl)amino)-1-oxopropan-2-yl)-4-((Z)-1,4,4,4-tetrafluoro-3-(3,4,5-trichlorophenyl)but-1-en-1-yl)benzamide]",50 to 100,50 to 100,–
"CN(CC(F)(F)F)C(=O)CNC(=O)c1ccc(/C(F)=C/C(c2cc(Cl)c(Cl)c(Cl)c2)C(F)(F)F)cc1C(F)(F)F (centres unmarked) [F51, (Z)—N-(2-(Methyl(2,2,2-trifluoroethyl)amino)-2-oxoethyl)-4-(1,4,4,4-tetrafluoro-3-(3,4,5-trichlorophenyl)but-1-en-1-yl)-2-(trifluoromethyl)benzamide]",50 to 100,50 to 100,–
"CC(C)(NC(=O)c1ccc(/C(F)=C/C(c2cc(Cl)c(Cl)c(Cl)c2)C(F)(F)F)cc1C(F)(F)F)C(=O)NCC(F)(F)F (centres unmarked) [F54, (Z)—N-(2-Methyl-1-oxo-1-((2,2,2-trifluoroethyl)amino)propan-2-yl)-4-(1,4,4,4-tetrafluoro-3-(3,4,5-trichlorophenyl)but-1-en-1-yl)-2-(trifluoromethyl)benzamide]",50 to 100,50 to 100,–
"C[C@@H](NC(=O)c1ccc(/C(F)=C/C(c2cc(Cl)c(Cl)c(Cl)c2)C(F)(F)F)cc1C(F)(F)F)C(=O)N(CC(F)(F)F)NC(=O)OC(C)(C)C (stereo partly drawn) [F55, tert-Butyl 2-((2R)-2-(4-((Z)-1,4,4,4-tetrafluoro-3-(3,4,5-trichlorophenyl)but-1-en-1-yl)-2-(trifluoromethyl)benzamido)propanoyl)-2-(2,2,2-trifluoroethyl)hydrazinecarboxylate]",50 to 100,50 to 100,–
"O=C(NC1(C(=O)CCC(F)(F)F)CC1)c1ccc(/C(F)=C/C(c2cc(Cl)c(Cl)c(Cl)c2)C(F)(F)F)cc1C(F)(F)F (centres unmarked) [F56, (Z)-4-(1,4,4,4-Tetrafluoro-3-(3,4,5-trichlorophenyl)but-1-en-1-yl)-N-(1-(4,4,4-trifluorobutanoyl)cyclopropyl)-2-(trifluoromethyl)benzamide]",50 to 100,50 to 100,–
"CC(F)(F)C(/C=C(\F)c1ccc(C(=O)NC2(C(=O)NCC(F)(F)F)CC2)c(C(F)(F)F)c1)c1cc(Cl)c(Cl)c(Cl)c1 (centres unmarked) [F58, (Z)-4-(1,4,4-Trifluoro-3-(3,4,5-trichlorophenyl)pent-1-en-1-yl)-N-(1-((2,2,2-trifluoroethyl)carbamoyl)cyclopropyl)-2-(trifluoromethyl)benzamide]",50 to 100,50 to 100,–
"CC(F)(F)C(/C=C(\F)c1ccc(C(=O)NCC(=O)NCC(F)(F)F)c(C(F)(F)F)c1)c1cc(Cl)c(Cl)c(Cl)c1 (centres unmarked) [F62, (Z)—N-(2-Oxo-2-((2,2,2-trifluoroethyl)amino)ethyl)-4-(1,4,4-trifluoro-3-(3,4,5-trichlorophenyl)pent-1-en-1-yl)-2-(trifluoromethyl)benzamide]",50 to 100,50 to 100,–
"CCNC(=O)[C@@H](C)NC(=O)c1ccc(/C(F)=C/C(c2cc(Cl)c(Cl)c(Cl)c2)C(F)(F)F)cc1C(F)(F)F (stereo partly drawn) [F63, N—((R)-1-(Ethylamino)-1-oxopropan-2-yl)-4-((Z)-1,4,4,4-tetrafluoro-3-(3,4,5-trichlorophenyl)but-1-en-1-yl)-2-(trifluoromethyl)benzamide]",50 to 100,50 to 100,–
"CCNC(=O)[C@@H](C)NC(=O)c1ccc(/C(F)=C/C(c2cc(Cl)c(Cl)c(Cl)c2)C(F)(F)F)cc1Cl (stereo partly drawn) [F64, 2-Chloro-N—((R)-1-(ethylamino)-1-oxopropan-2-yl)-4-((Z)-1,4,4,4-tetrafluoro-3-(3,4,5-trichlorophenyl)but-1-en-1-yl)benzamide]",50 to 100,50 to 100,–
"CC(NC(=O)CNC(=O)c1ccc(/C(F)=C/C(c2cc(Cl)c(Cl)c(Cl)c2)C(F)(F)F)cc1C(F)(F)F)C(F)(F)F (centres unmarked) [F65, (Z)—N-(2-Oxo-2-((1,1,1-trifluoropropan-2-yl)amino)ethyl)-4-(1,4,4,4-tetrafluoro-3-(3,4,5-trichlorophenyl)but-1-en-1-yl)-2-(trifluoromethyl)benzamide]",50 to 100,50 to 100,–
"CC(NC(=O)CNC(=O)c1ccc(/C(F)=C/C(c2cc(Cl)c(Cl)c(Cl)c2)C(F)(F)F)cc1Cl)C(F)(F)F (centres unmarked) [F66, (Z)-2-Chloro-N-(2-oxo-2-((1,1,1-trifluoropropan-2-yl)amino)ethyl)-4-(1,4,4,4-tetrafluoro-3-(3,4,5-trichlorophenyl)but-1-en-1-yl)benzamide]",50 to 100,50 to 100,–
"C[C@@H](NC(=O)c1ccc(/C(F)=C/C(c2cc(Cl)c(Cl)c(Cl)c2)C(F)(F)F)cc1I)C(=O)NCC(F)(F)F (stereo partly drawn) [F67, 2-Iodo-N—((R)-1-oxo-1-((2,2,2-trifluoroethyl)amino)propan-2-yl)-4-((Z)-1,4,4,4-tetrafluoro-3-(3,4,5-trichlorophenyl)but-1-en-1-yl)benzamide]",50 to 100,50 to 100,"mortality at 0.05 µg/cm2 ([1]; 168 h, 0.05 μg/cm^2 on artificial diet, second instar larvae, five to seven days, read-out: BAW Percent control (or mortality)): 100%; mortality at 0.5 µg/cm2 ([1]; 168 h, 0.5 μg/cm^2 on artificial diet, second instar larvae, five to seven days, read-out: BAW Percent control (or mortality)): 100%; mortality at 5 µg/cm2 ([1]; 168 h, 5 μg/cm^2 on artificial diet, second instar larvae, five to seven days, read-out: BAW Percent control (or mortality)): 100%; mortality at 0.05 µg/cm2 ([2]; 168 h, 0.05 μg/cm^2 on artificial diet, second instar larvae, five to seven days, read-out: CL Percent control (or mortality)): 100%; mortality at 0.5 µg/cm2 ([2]; 168 h, 0.5 μg/cm^2 on artificial diet, second instar larvae, five to seven days, read-out: CL Percent control (or mortality)): 100%; mortality at 5 µg/cm2 ([2]; 168 h, 5 μg/cm^2 on artificial diet, second instar larvae, five to seven days, read-out: CL Percent control (or mortality)): 100%"
"CCC(F)(F)C(/C=C(\F)c1ccc(C(=O)NCC(=O)NCC(F)(F)F)c(C(F)(F)F)c1)c1cc(Cl)c(Cl)c(Cl)c1 (centres unmarked) [F87, (Z)—N-(2-Oxo-2-((2,2,2-trifluoroethyl)amino)ethyl)-4-(1,4,4-trifluoro-3-(3,4,5-trichlorophenyl)hex-1-en-1-yl)-2-(trifluoromethyl)benzamide]",50 to 100,50 to 100,–
"CCC(F)(F)C(/C=C(\F)c1ccc(C(=O)NC2(C(=O)NCC(F)(F)F)CC2)c(C(F)(F)F)c1)c1cc(Cl)c(Cl)c(Cl)c1 (centres unmarked) [F88, (Z)-4-(1,4,4-Trifluoro-3-(3,4,5-trichlorophenyl)hex-1-en-1-yl)-N-(1-((2,2,2-trifluoroethyl)carbamoyl)cyclopropyl)-2-(trifluoromethyl)benzamide]",50 to 100,50 to 100,–
"O=C(NC1(C(=O)NCCCC(F)(F)F)CC1)c1ccc(/C(F)=C/C(c2cc(Cl)c(Cl)c(Cl)c2)C(F)(F)F)cc1C(F)(F)F (centres unmarked) [F89, (Z)-4-(1,4,4,4-Tetrafluoro-3-(3,4,5-trichlorophenyl)but-1-en-1-yl)-N-(1-((4,4,4-trifluorobutyl)carbamoyl)cyclopropyl)-2-(trifluoromethyl)benzamide]",50 to 100,50 to 100,–
"O=C(NC1(C(=O)NCCC(F)(F)F)CC1)c1ccc(/C(F)=C/C(c2cc(Cl)c(Cl)c(Cl)c2)C(F)(F)F)cc1C(F)(F)F (centres unmarked) [F90, (Z)-4-(1,4,4,4-Tetrafluoro-3-(3,4,5-trichlorophenyl)but-1-en-1-yl)-2-(trifluoromethyl)-N-(1-((3,3,3-trifluoropropyl)carbamoyl)cyclopropyl)benzamide]",50 to 100,50 to 100,–
"CC(C)CCNC(=O)C1(NC(=O)c2ccc(/C(F)=C/C(c3cc(Cl)c(Cl)c(Cl)c3)C(F)(F)F)cc2C(F)(F)F)CC1 (centres unmarked) [F91, (Z)—N-(1-(Isopentylcarbamoyl)cyclopropyl)-4-(1,4,4,4-tetrafluoro-3-(3,4,5-trichlorophenyl)but-1-en-1-yl)-2-(trifluoromethyl)benzamide]",50 to 100,50 to 100,–
"CC(F)(F)CNC(=O)C1(NC(=O)c2ccc(/C(F)=C/C(c3cc(Cl)c(Cl)c(Cl)c3)C(F)(F)F)cc2C(F)(F)F)CC1 (centres unmarked) [F92, (Z)—N-(1-((2,2-Difluoropropyl)carbamoyl)cyclopropyl)-4-(1,4,4,4-tetrafluoro-3-(3,4,5-trichlorophenyl)but-1-en-1-yl)-2-(trifluoromethyl)benzamide]",50 to 100,50 to 100,–
